For orientation: AC50 means the midpoint of the concentration-response curve, whichever way the signal moves.

Our source for the AC50 values is ChEMBL document CHEMBL5291721, “A preclinical secondary pharmacology resource illuminates target-adverse drug reaction associations of marketed drugs” (Nat Commun, 2023).

Each structure is given as a SMILES string.

For assay [1], the target named is Sodium-dependent serotonin transporter (Homo sapiens, UniProt P31645).
In assay [2] the target is T1, Progesterone receptor (Homo sapiens, UniProt P06401).
T1 sequence (P06401 whole entry): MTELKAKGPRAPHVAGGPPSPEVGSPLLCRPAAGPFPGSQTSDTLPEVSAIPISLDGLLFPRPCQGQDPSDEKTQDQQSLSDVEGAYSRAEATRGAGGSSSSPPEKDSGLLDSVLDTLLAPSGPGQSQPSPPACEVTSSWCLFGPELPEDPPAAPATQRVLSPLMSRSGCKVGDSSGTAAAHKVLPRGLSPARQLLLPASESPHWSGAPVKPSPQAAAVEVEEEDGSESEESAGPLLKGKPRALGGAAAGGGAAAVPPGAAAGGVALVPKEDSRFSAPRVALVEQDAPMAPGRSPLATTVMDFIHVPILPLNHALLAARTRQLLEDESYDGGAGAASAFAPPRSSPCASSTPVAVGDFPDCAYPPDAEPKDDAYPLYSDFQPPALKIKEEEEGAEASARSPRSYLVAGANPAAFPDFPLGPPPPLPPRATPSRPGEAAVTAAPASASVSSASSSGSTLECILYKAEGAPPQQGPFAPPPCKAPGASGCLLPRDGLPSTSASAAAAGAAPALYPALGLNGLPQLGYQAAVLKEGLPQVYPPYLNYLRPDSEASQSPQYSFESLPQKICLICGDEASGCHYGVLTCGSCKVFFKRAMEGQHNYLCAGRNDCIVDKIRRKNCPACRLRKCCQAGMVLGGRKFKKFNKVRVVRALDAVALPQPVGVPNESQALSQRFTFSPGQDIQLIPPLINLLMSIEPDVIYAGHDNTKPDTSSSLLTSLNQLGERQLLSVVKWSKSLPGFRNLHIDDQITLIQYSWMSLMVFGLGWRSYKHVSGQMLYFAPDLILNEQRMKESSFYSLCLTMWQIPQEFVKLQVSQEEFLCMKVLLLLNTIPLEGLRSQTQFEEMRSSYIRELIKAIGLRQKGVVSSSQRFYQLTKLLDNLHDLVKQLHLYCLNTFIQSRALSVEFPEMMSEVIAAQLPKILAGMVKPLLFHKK

Assay [3] concerns the target T2, Estrogen receptor (Homo sapiens, UniProt P03372).
T2 sequence (P03372 whole entry): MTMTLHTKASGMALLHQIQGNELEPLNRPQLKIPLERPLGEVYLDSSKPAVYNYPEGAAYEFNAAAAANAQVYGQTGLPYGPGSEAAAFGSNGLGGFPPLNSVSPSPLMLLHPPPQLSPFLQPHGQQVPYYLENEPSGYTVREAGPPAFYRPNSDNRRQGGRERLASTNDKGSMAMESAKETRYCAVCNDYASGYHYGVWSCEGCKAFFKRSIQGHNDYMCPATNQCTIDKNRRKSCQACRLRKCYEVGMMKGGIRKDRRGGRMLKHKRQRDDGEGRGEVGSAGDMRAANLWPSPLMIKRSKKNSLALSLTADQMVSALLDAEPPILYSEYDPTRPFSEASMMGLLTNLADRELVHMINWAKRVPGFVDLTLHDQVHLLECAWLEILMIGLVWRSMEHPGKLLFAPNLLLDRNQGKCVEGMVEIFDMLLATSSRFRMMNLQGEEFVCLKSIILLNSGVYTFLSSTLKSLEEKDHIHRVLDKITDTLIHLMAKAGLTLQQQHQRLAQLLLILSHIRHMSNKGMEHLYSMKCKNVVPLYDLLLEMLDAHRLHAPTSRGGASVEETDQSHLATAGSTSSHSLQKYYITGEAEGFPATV

The target of assay [4] is Sodium-dependent noradrenaline transporter (Homo sapiens, UniProt P23975).
Assay [5] addresses cGMP-inhibited 3',5'-cyclic phosphodiesterase 3A (Homo sapiens, UniProt Q14432). The class given is functional.
The target in assay [6] is D(3) dopamine receptor (Homo sapiens, UniProt P35462).
Chain of D(3) dopamine receptor (P35462 whole entry): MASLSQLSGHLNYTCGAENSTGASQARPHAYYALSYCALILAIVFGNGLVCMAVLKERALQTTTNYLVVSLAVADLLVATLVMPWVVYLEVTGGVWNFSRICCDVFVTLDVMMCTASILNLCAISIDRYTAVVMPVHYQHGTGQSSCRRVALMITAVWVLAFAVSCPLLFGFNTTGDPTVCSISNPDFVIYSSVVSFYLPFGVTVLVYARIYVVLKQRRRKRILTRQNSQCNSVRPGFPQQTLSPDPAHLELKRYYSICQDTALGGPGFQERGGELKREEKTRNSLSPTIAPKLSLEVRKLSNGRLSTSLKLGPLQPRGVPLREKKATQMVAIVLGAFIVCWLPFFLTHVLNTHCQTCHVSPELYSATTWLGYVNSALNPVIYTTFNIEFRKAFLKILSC
For assay [7], the target named is T3, Amine oxidase [flavin-containing] A (Homo sapiens, UniProt P21397).
T3 sequence (P21397 whole entry): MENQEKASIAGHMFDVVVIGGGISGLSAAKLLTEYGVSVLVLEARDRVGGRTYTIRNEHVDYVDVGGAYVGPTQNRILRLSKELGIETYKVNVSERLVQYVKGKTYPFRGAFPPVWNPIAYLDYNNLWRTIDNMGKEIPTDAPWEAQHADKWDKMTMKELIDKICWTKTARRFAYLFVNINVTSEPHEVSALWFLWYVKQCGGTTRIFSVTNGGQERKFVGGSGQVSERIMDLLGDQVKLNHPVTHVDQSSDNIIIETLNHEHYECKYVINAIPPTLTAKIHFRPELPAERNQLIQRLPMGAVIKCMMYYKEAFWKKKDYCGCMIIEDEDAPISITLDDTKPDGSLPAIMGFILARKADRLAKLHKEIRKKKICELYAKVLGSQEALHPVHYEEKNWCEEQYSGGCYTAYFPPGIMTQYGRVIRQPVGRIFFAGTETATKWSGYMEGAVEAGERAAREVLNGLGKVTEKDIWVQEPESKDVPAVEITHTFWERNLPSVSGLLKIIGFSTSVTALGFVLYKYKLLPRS
The class given is functional.

Assay [8] concerns the target Voltage-gated inwardly rectifying potassium channel KCNH2 (Homo sapiens, UniProt Q12809). The class given is functional. To be noted: read-out: AC50.
Assay [9] concerns the target T4, Prostaglandin G/H synthase 1 (Homo sapiens, UniProt P23219). The class given is functional.
Assay [10] addresses Sodium-dependent dopamine transporter (Homo sapiens, UniProt Q01959).
The target of assay [11] is Histamine H3 receptor (Homo sapiens, UniProt Q9Y5N1).
Chain of Histamine H3 receptor (Q9Y5N1 whole entry): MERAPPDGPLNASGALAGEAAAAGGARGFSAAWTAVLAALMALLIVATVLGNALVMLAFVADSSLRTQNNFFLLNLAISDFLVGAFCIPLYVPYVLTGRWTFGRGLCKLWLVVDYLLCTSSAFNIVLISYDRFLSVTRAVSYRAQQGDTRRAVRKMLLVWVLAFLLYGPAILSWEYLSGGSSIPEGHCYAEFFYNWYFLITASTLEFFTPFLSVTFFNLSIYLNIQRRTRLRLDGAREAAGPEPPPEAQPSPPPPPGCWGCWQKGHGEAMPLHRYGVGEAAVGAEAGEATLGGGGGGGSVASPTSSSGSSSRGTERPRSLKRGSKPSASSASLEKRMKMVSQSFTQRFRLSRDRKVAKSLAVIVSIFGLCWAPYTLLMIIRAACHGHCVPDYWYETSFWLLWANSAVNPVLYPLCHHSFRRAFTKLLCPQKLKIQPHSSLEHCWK
Assay [12] addresses T4, Prostaglandin G/H synthase 1. The class given is functional. This is another data set of the same source.
The target in assay [13] is Mu-type opioid receptor (Homo sapiens, UniProt P35372).
Chain of Mu-type opioid receptor (P35372 whole entry): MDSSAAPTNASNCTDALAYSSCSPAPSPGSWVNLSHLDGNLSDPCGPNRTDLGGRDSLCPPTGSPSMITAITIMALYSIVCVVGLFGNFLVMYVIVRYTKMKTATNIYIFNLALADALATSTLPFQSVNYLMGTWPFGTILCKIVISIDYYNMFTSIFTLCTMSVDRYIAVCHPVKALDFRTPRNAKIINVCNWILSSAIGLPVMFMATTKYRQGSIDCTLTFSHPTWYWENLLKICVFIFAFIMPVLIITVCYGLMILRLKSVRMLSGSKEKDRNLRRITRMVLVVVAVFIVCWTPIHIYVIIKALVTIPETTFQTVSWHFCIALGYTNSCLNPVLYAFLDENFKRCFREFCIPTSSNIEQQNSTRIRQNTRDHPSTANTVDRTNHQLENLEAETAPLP
Also: assay procedure not described here.

Chain of cGMP-inhibited 3',5'-cyclic phosphodiesterase 3A (Q14432 whole entry): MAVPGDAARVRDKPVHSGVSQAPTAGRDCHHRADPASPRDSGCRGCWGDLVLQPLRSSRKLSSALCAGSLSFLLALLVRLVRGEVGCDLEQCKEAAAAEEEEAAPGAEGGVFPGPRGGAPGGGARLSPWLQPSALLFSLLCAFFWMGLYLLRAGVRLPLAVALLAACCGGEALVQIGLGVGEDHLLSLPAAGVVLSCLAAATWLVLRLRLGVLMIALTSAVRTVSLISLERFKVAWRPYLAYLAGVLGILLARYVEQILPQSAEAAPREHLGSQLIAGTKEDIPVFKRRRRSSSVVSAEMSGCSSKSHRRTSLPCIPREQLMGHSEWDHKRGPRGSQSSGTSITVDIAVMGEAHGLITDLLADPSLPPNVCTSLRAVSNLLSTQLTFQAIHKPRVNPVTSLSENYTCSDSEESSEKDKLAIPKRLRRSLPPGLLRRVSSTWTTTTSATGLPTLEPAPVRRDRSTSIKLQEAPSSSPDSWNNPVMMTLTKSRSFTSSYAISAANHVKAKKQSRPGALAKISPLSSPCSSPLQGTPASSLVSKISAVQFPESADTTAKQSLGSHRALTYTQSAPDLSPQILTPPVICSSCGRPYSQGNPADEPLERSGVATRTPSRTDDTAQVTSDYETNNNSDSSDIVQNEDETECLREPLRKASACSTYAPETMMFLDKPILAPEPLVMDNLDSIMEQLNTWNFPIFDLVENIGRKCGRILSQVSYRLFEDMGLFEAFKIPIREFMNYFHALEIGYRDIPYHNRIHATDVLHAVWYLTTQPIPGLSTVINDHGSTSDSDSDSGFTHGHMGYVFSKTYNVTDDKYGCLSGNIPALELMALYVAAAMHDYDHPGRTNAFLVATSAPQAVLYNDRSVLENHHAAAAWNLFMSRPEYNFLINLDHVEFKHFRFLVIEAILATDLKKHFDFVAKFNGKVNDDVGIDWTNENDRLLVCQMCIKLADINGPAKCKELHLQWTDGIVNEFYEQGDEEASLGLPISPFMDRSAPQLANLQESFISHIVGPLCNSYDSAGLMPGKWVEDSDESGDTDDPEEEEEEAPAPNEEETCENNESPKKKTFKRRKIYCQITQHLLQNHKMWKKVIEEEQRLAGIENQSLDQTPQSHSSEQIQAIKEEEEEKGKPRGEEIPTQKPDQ
Chain of Sodium-dependent serotonin transporter (P31645 whole entry): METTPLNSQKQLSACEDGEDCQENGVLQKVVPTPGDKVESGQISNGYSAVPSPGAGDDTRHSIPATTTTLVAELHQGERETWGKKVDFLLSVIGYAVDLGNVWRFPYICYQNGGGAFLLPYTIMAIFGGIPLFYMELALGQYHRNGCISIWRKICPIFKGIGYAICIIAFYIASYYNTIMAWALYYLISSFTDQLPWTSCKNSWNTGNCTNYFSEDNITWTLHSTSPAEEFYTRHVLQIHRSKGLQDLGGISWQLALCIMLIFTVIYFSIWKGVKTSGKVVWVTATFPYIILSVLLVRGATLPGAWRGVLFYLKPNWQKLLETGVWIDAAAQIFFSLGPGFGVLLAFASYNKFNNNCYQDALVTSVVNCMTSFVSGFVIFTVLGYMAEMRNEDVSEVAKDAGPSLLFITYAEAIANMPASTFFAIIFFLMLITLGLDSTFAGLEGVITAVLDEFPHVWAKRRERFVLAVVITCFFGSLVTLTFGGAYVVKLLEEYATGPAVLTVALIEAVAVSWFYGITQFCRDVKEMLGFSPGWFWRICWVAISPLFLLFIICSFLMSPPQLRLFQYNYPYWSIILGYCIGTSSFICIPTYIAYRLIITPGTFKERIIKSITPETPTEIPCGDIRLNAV
Chain of Sodium-dependent dopamine transporter (Q01959 whole entry): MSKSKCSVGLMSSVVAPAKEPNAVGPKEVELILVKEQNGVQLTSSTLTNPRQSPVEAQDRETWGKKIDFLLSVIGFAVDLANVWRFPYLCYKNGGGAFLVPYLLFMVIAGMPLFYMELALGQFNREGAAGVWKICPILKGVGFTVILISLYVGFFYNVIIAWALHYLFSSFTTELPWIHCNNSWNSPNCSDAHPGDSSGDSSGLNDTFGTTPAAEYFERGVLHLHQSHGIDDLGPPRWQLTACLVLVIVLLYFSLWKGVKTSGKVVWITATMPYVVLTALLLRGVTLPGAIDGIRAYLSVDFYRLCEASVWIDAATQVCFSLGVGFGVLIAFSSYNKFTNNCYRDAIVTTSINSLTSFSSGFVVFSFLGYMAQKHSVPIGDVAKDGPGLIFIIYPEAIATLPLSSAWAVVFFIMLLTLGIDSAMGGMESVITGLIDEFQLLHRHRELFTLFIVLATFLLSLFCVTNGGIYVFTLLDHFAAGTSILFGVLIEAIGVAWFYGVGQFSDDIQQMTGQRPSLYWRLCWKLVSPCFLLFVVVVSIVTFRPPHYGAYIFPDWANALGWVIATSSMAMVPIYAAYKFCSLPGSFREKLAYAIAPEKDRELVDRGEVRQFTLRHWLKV
Chain of Voltage-gated inwardly rectifying potassium channel KCNH2 (Q12809 whole entry): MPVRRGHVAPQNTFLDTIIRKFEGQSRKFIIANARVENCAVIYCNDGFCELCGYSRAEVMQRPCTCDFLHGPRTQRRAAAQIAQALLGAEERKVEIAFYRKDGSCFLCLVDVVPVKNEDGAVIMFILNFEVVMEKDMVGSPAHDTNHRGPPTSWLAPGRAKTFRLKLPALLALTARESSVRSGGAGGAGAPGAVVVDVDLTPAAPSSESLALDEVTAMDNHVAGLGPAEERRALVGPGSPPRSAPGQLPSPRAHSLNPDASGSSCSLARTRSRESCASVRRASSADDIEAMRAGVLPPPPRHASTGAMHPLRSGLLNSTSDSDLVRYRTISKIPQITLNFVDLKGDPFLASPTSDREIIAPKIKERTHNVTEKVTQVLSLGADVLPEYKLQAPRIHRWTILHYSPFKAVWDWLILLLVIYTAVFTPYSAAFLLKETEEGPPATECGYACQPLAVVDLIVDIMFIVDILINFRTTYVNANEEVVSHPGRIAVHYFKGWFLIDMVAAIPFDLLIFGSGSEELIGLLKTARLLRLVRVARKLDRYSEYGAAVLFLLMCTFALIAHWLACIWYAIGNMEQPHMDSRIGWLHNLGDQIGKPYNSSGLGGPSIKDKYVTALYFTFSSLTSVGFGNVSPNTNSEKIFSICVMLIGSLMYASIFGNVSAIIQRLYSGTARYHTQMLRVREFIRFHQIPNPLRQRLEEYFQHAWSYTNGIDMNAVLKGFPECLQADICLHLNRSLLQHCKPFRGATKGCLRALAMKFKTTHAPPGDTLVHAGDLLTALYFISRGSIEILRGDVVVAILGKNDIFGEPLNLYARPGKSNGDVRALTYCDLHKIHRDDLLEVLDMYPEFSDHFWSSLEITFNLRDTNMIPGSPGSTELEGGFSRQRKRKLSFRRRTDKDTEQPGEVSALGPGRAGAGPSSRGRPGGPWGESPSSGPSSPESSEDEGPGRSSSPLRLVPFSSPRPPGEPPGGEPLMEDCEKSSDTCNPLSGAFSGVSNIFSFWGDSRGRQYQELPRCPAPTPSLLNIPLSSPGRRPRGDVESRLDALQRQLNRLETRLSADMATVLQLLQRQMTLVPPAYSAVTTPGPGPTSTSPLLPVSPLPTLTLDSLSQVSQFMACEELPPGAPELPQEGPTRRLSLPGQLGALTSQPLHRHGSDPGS

Take `C[C@]1(COc2ccc(N3CCC(Oc4ccc(OC(F)(F)F)cc4)CC3)cc2)Cn2cc([N+](=O)[O-])nc2O1`: the AC50 was 2.02 µM in assay [1]; over 30 µM in [2]; over 30 µM in assay [3]; 12.9 µM in assay [4]; over 30 µM in assay [5]; over 30 µM in [6]. Moreover, the AC50 was over 30 µM in assay [7]; over 30 µM in assay [8]; over 30 µM in assay [9]; over 30 µM in assay [10]; over 30 µM in assay [11]; 27.9 µM in assay [12]. The same compound came in with an AC50 in assay [13] of over 30 µM.
Regarding `CC(=O)OC(C)OC(=O)C(C)c1ccc(-c2ccccc2)c(F)c1` (stereo not given), the AC50 is over 30 µM in assay [1]; 25.4 µM in assay [2]; over 30 µM in assay [3]; over 30 µM in [4]; over 30 µM in assay [5]; over 30 µM in [6]. Moreover, the half-maximal activity concentration (AC50) was over 30 µM in [7]; over 30 µM in assay [8]; 0.0212 µM in assay [9]; over 30 µM in assay [10]; over 30 µM in [11]; 0.0309 µM in assay [12]. This compound also showed an AC50 in assay [13] of over 30 µM.
As for `O=C(Nc1nc(-c2cc(Cl)cs2)c(N2CCN(C3CCCCC3)CC2)s1)c1cnc(N2CCC(C(=O)O)CC2)c(Cl)c1` [AVATROMBOPAG], the AC50 in [1], in assay [2], in assay [3], in assay [4], in assay [5] and in assay [6] was over 30 µM each time. For the same compound, the AC50 in [7] is over 30 µM; in assay [8] it was 12.4 µM; in assay [9], 19.8 µM; in [10], over 30 µM; in assay [11], over 30 µM; in assay [12] it was over 30 µM. For the same compound, in [13], the concentration at half-maximal activity (AC50) is over 30 µM.
In the case of `COC(=O)C1=C(C)NC(C)=C(C(=O)O[C@H]2CCN(Cc3ccccc3)C2)[C@H]1c1cccc([N+](=O)[O-])c1` [BARNIDIPINE], the concentration at half-maximal activity (AC50) in [1] is 13.6 µM; in [2] it was 5.55 µM; in [3], over 30 µM; in [4], 0.635 µM; in assay [5], over 30 µM; in [6] it was 4.3 µM. Moreover, the AC50 is over 30 µM in [7]; 1.8 µM in [8]; over 30 µM in assay [9]; 1.9 µM in [10]; over 30 µM in assay [11]; over 30 µM in [12]. The compound also gave a concentration at half-maximal activity (AC50) in [13] of 3.24 µM.
On to `CO/N=C(\C(=O)N[C@@H]1C(=O)N2C(C(=O)[O-])=C(C[n+]3cccc4c3CCC4)CS[C@H]12)c1csc(N)n1` [CEFPIROME], for which the AC50 in [1], in [2], in assay [3], in assay [4], in [5] and in [6] was over 30 µM each time. For the same compound, the AC50 in assay [7], in assay [8], in [9], in assay [10], in [11] and in assay [12] was over 30 µM each time. This compound also yielded a half-maximal activity concentration (AC50) in assay [13] of over 30 µM.
On to `CC1(C)S[C@@H]2[C@H](NC(=O)[C@H](NC(=O)N3CCN(S(C)(=O)=O)C3=O)c3ccccc3)C(=O)N2[C@H]1C(=O)O` [MEZLOCILLIN], for which the AC50 in [1], in assay [2], in assay [3], in assay [4], in assay [5] and in [6] was over 30 µM throughout. Besides, the AC50 in [7], in [9], in assay [10], in assay [11], in assay [12] and in assay [13] was over 30 µM each time.
Turning to `CCC(=O)O[C@@H]1CC(=O)O[C@H](C)C/C=C/C=C/[C@H](OC(C)=O)[C@H](C)C[C@H](CC=O)[C@H](O[C@@H]2O[C@H](C)[C@@H](O[C@H]3C[C@@](C)(OC(C)=O)[C@@H](OC(=O)CC)[C@H](C)O3)[C@H](N(C)C)[C@H]2O)[C@H]1OC` [MIOCAMYCIN], the AC50 in [1], in assay [2], in assay [3], in assay [4], in assay [5] and in assay [6] was over 30 µM in each case. The half-maximal activity concentration (AC50) in assay [7], in assay [9], in [10], in [11], in [12] and in assay [13] was over 30 µM throughout.
Take `CC(c1ccc(Cl)c(Cl)c1)N1N=C(N)CC1=O` (stereo not given) [MUZOLIMINE]: the AC50 in assay [1], in assay [2], in [3], in assay [4], in [5] and in assay [6] was over 30 µM throughout. Also, the AC50 in assay [7] was over 30 µM; in [9], 13.3 µM; in assay [10] it was over 30 µM; in assay [11] it was over 30 µM; in assay [12], over 30 µM; in [13], over 30 µM.
Consider `c1cc(CN2CCCNCCNCCCNCC2)ccc1CN1CCCNCCNCCCNCC1` [PLERIXAFOR], for which the AC50 in assay [1], in assay [2], in assay [3], in assay [4], in assay [5] and in assay [6] was over 30 µM throughout. The AC50 in assay [7] is over 30 µM; in [9] it was over 30 µM; in assay [10] it was over 30 µM; in assay [11], 0.307 µM; in assay [12], over 30 µM; in [13] it was over 30 µM.
For `O=C(NC(Cc1cc(=O)[nH]c2ccccc12)C(=O)O)c1ccc(Cl)cc1` (stereo not given) [REBAMIPIDE], the AC50 in assay [1], in assay [2], in assay [3], in assay [4], in assay [5] and in [6] was over 30 µM in each case. Further, the AC50 in [7], in assay [9], in assay [10], in [11], in assay [12] and in assay [13] was over 30 µM each time.
